Data taken from ChEMBL document CHEMBL1201862, “PubChem BioAssay data set” (2004).
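Cultured in 96-well plates, cells were exposed to test compound for 48 hours across five concentrations. GI50: concentration for 50% inhibition of growth.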 Active and inactive are the calls of the source. Rule as the data show it: active = GI50 up to about 1.1 µM and inactive = higher.

Legend:
Assay in all cases: NCI anticancer screen, dose series, 48 h
OVCAR-5 = tested on: OVCAR-5
Malme-3M = tested on: Malme-3M
A549 = tested on: A549
CCRF-CEM = tested on: CCRF-CEM
LOX IMVI = tested on: LOX IMVI
DU-145 = tested on: DU-145
HCT-116 = tested on: HCT-116
U-251 = tested on: U-251
HCT-15 = tested on: HCT-15
MDA-MB-231 = tested on: MDA-MB-231
SNB-75 = tested on: SNB-75
TK-10 = tested on: TK-10
UO-31 = tested on: UO-31
A498 = tested on: A498
OVCAR-8 = tested on: OVCAR-8
T47D = tested on: T47D
SW-620 = tested on: SW-620
SNB-19 = tested on: SNB-19
EKVX = tested on: EKVX
NCI-H226 = tested on: NCI-H226

CC(=O)O.CN1CCN(CN2C(=O)C3C4C=CC(C3C2=O)C2C3C(=O)N(CN5CCN(C)CC5)C(=O)C3C42)CC1 (stereo not given)
GI50 (OVCAR-5): 23.9 µM (inactive)
GI50 (Malme-3M): 18.3 µM (inactive)
GI50 (A549): 22 µM (inactive)
GI50 (CCRF-CEM): 18.5 µM (inactive)
GI50 (LOX IMVI): 18.2 µM (inactive)
GI50 (DU-145): 25.1 µM (inactive)
GI50 (HCT-116): 16.6 µM (inactive)
GI50 (U-251): 19 µM (inactive)
GI50 (HCT-15): 18.9 µM
GI50 (MDA-MB-231): 24.4 µM (inactive)
GI50 (SNB-75): 23.3 µM (inactive)
GI50 (TK-10): 45.3 µM (inactive)
GI50 (UO-31): 25.2 µM (inactive)
GI50 (A498): > 55.3 µM (inactive)
GI50 (OVCAR-8): 27.8 µM (inactive)
GI50 (T47D): 30 µM (inactive)
GI50 (SW-620): 22.2 µM (inactive)

C=C1C2CCC3(CCC4C5(C)CCCC4(C=[N+](CCO)C5)C3C2)C1O (stereo not given)
GI50 (SNB-19): > 100 µM (inactive)
GI50 (OVCAR-5): > 100 µM (inactive)
GI50 (Malme-3M): > 100 µM (inactive)
GI50 (A549): > 100 µM (inactive)
GI50 (CCRF-CEM): > 100 µM (inactive)
GI50 (LOX IMVI): > 100 µM (inactive)
GI50 (DU-145): > 100 µM (inactive)
GI50 (HCT-116): > 100 µM (inactive)
GI50 (U-251): > 100 µM (inactive)
GI50 (HCT-15): > 100 µM
GI50 (MDA-MB-231): > 100 µM (inactive)
GI50 (EKVX): > 100 µM (inactive)
GI50 (SNB-75): > 100 µM (inactive)
GI50 (TK-10): > 100 µM (inactive)
GI50 (UO-31): > 100 µM (inactive)
GI50 (A498): > 100 µM (inactive)
GI50 (OVCAR-8): > 100 µM (inactive)
GI50 (T47D): > 100 µM (inactive)
GI50 (SW-620): > 100 µM (inactive)

O=C(c1ccccc1)c1ccc(N2C(=O)/C(=C/Cc3ccco3)N=C2c2ccccc2)c(N2C(=O)/C(=C/Cc3ccco3)N=C2c2ccccc2)c1
GI50 (SNB-19): 47.4 µM (inactive)
GI50 (OVCAR-5): > 100 µM (inactive)
GI50 (A549): 35.8 µM (inactive)
GI50 (CCRF-CEM): 11.1 µM (inactive)
GI50 (LOX IMVI): 24.2 µM (inactive)
GI50 (DU-145): 30 µM (inactive)
GI50 (HCT-116): 40.2 µM (inactive)
GI50 (U-251): 18.8 µM (inactive)
GI50 (HCT-15): 45 µM
GI50 (MDA-MB-231): 37.9 µM (inactive)
GI50 (EKVX): 81.5 µM (inactive)
GI50 (SNB-75): 28.1 µM (inactive)
GI50 (TK-10): 55.8 µM (inactive)
GI50 (UO-31): 39 µM (inactive)
GI50 (A498): 51.5 µM (inactive)
GI50 (OVCAR-8): 29.3 µM (inactive)
GI50 (T47D): 36.4 µM (inactive)
GI50 (SW-620): 39.8 µM (inactive)

CCOC(=O)C(NCc1cccc(C(F)(F)F)c1)(NC(=O)CC)C(F)(F)F (stereo not given)
GI50 (NCI-H226): > 100 µM (inactive)
GI50 (SNB-19): > 100 µM (inactive)
GI50 (OVCAR-5): > 100 µM (inactive)
GI50 (Malme-3M): > 100 µM (inactive)
GI50 (A549): 44.2 µM (inactive)
GI50 (CCRF-CEM): > 100 µM (inactive)
GI50 (LOX IMVI): > 100 µM (inactive)
GI50 (DU-145): > 100 µM (inactive)
GI50 (HCT-116): > 100 µM (inactive)
GI50 (U-251): > 100 µM (inactive)
GI50 (HCT-15): > 100 µM
GI50 (MDA-MB-231): 31.8 µM (inactive)
GI50 (EKVX): 68.5 µM (inactive)
GI50 (SNB-75): 63.5 µM (inactive)
GI50 (TK-10): > 100 µM (inactive)
GI50 (UO-31): 51.8 µM (inactive)
GI50 (OVCAR-8): > 100 µM (inactive)
GI50 (T47D): 62.4 µM (inactive)
GI50 (SW-620): > 100 µM (inactive)

OC1CSCCCSCCSCCCSC1
GI50 (NCI-H226): > 100 µM (inactive)
GI50 (SNB-19): > 100 µM (inactive)
GI50 (OVCAR-5): > 100 µM (inactive)
GI50 (A549): > 100 µM (inactive)
GI50 (LOX IMVI): > 100 µM (inactive)
GI50 (DU-145): > 100 µM (inactive)
GI50 (HCT-116): > 100 µM (inactive)
GI50 (U-251): > 100 µM (inactive)
GI50 (HCT-15): > 100 µM
GI50 (MDA-MB-231): > 100 µM (inactive)
GI50 (EKVX): > 100 µM (inactive)
GI50 (SNB-75): > 100 µM (inactive)
GI50 (TK-10): > 100 µM (inactive)
GI50 (UO-31): > 100 µM (inactive)
GI50 (A498): > 100 µM (inactive)
GI50 (OVCAR-8): > 100 µM (inactive)
GI50 (T47D): > 100 µM (inactive)
GI50 (SW-620): > 100 µM (inactive)

C=C[C@@]1(C)CC(=O)[C@]2(O)[C@@]3(C)[C@@H](OC(C)=O)CCC(C)(C)[C@@H]3[C@H](O)[C@H](OC(C)=O)[C@@]2(C)O1
GI50 (NCI-H226): > 100 µM (inactive)
GI50 (SNB-19): > 100 µM (inactive)
GI50 (OVCAR-5): > 100 µM (inactive)
GI50 (A549): > 100 µM (inactive)
GI50 (LOX IMVI): > 100 µM (inactive)
GI50 (DU-145): > 100 µM (inactive)
GI50 (HCT-116): > 100 µM (inactive)
GI50 (U-251): > 100 µM (inactive)
GI50 (HCT-15): > 100 µM
GI50 (MDA-MB-231): > 100 µM (inactive)
GI50 (EKVX): > 100 µM (inactive)
GI50 (SNB-75): 27.6 µM (inactive)
GI50 (UO-31): > 100 µM (inactive)
GI50 (A498): > 100 µM (inactive)
GI50 (OVCAR-8): > 100 µM (inactive)
GI50 (T47D): > 100 µM (inactive)
GI50 (SW-620): > 100 µM (inactive)

Nc1cc2ncnn2c(SCC(=O)N/N=C/C(Br)=C\c2ccccc2)n1
GI50 (NCI-H226): 20 µM (inactive)
GI50 (SNB-19): 31 µM (inactive)
GI50 (OVCAR-5): 22.1 µM (inactive)
GI50 (Malme-3M): 12.1 µM (inactive)
GI50 (A549): 16.3 µM (inactive)
GI50 (CCRF-CEM): 5.77 µM (inactive)
GI50 (LOX IMVI): 16 µM (inactive)
GI50 (DU-145): > 10 µM (inactive)
GI50 (HCT-116): 21.7 µM (inactive)
GI50 (U-251): 5.24 µM (inactive)
GI50 (HCT-15): 18.1 µM
GI50 (MDA-MB-231): 15.5 µM (inactive)
GI50 (EKVX): 22.5 µM (inactive)
GI50 (SNB-75): 20.1 µM (inactive)
GI50 (TK-10): 31.8 µM (inactive)
GI50 (UO-31): 15.5 µM (inactive)
GI50 (OVCAR-8): 15.9 µM (inactive)
GI50 (T47D): 3.49 µM (inactive)
GI50 (SW-620): 16.4 µM (inactive)

COc1cc(C(N)=O)cc(NC(=O)/C=C/c2ccccc2)c1OC
GI50 (SNB-19): 27.7 µM (inactive)
GI50 (OVCAR-5): > 100 µM (inactive)
GI50 (Malme-3M): > 100 µM (inactive)
GI50 (A549): > 100 µM (inactive)
GI50 (CCRF-CEM): > 100 µM (inactive)
GI50 (LOX IMVI): > 100 µM (inactive)
GI50 (DU-145): > 100 µM (inactive)
GI50 (HCT-116): > 100 µM (inactive)
GI50 (U-251): > 100 µM (inactive)
GI50 (HCT-15): > 100 µM
GI50 (MDA-MB-231): > 100 µM (inactive)
GI50 (EKVX): 89.7 µM (inactive)
GI50 (SNB-75): 19.7 µM (inactive)
GI50 (TK-10): > 100 µM (inactive)
GI50 (UO-31): > 100 µM (inactive)
GI50 (A498): > 100 µM (inactive)
GI50 (OVCAR-8): 61.8 µM (inactive)
GI50 (T47D): 71.1 µM (inactive)
GI50 (SW-620): > 100 µM (inactive)

COC(=O)C12C3C4(C(=O)OC)C1C1(C(=O)OC)C2C3(C(=O)OC)C41C(=O)N(C(C)C)C(C)C (stereo not given)
GI50 (SNB-19): > 100 µM (inactive)
GI50 (OVCAR-5): > 100 µM (inactive)
GI50 (A549): > 100 µM (inactive)
GI50 (CCRF-CEM): > 100 µM (inactive)
GI50 (LOX IMVI): > 100 µM (inactive)
GI50 (DU-145): > 100 µM (inactive)
GI50 (HCT-116): > 100 µM (inactive)
GI50 (U-251): > 100 µM (inactive)
GI50 (HCT-15): > 100 µM
GI50 (MDA-MB-231): > 100 µM (inactive)
GI50 (EKVX): > 100 µM (inactive)
GI50 (SNB-75): > 100 µM (inactive)
GI50 (TK-10): > 100 µM (inactive)
GI50 (UO-31): > 100 µM (inactive)
GI50 (A498): > 100 µM (inactive)
GI50 (OVCAR-8): > 100 µM (inactive)
GI50 (T47D): > 100 µM (inactive)
GI50 (SW-620): > 100 µM (inactive)

N=C1/C(=C/c2ccccc2)C(=O)N=C2SC=NN12
GI50 (NCI-H226): > 100 µM (inactive)
GI50 (SNB-19): > 100 µM (inactive)
GI50 (OVCAR-5): > 100 µM (inactive)
GI50 (Malme-3M): > 100 µM (inactive)
GI50 (A549): > 100 µM (inactive)
GI50 (CCRF-CEM): > 100 µM (inactive)
GI50 (LOX IMVI): > 100 µM (inactive)
GI50 (DU-145): > 100 µM (inactive)
GI50 (HCT-116): > 100 µM (inactive)
GI50 (U-251): > 100 µM (inactive)
GI50 (HCT-15): > 100 µM
GI50 (MDA-MB-231): > 100 µM (inactive)
GI50 (EKVX): > 100 µM (inactive)
GI50 (SNB-75): > 100 µM (inactive)
GI50 (TK-10): > 100 µM (inactive)
GI50 (UO-31): > 100 µM (inactive)
GI50 (OVCAR-8): > 100 µM (inactive)
GI50 (T47D): > 100 µM (inactive)
GI50 (SW-620): > 100 µM (inactive)

O=c1c(-c2ccc3c(c2)OCO3)coc2c3c(ccc12)OCO3
GI50 (SNB-19): 21.4 µM (inactive)
GI50 (OVCAR-5): 56.6 µM (inactive)
GI50 (A549): 49.9 µM (inactive)
GI50 (CCRF-CEM): > 100 µM (inactive)
GI50 (LOX IMVI): 45.2 µM (inactive)
GI50 (DU-145): 41.4 µM (inactive)
GI50 (HCT-116): 33 µM (inactive)
GI50 (U-251): 37.6 µM (inactive)
GI50 (HCT-15): 28.4 µM
GI50 (MDA-MB-231): 21.5 µM (inactive)
GI50 (EKVX): 38 µM (inactive)
GI50 (SNB-75): 23 µM (inactive)
GI50 (TK-10): 19.1 µM (inactive)
GI50 (UO-31): 43.7 µM (inactive)
GI50 (A498): 29 µM (inactive)
GI50 (T47D): 37.8 µM (inactive)
GI50 (SW-620): 39.7 µM (inactive)
